Data as given in publication PMC6620786 (Molecular pharmaceutics, 2019).

Tests used:
[1] = biological target: T1, ABCG2 (Homo sapiens, UniProt Q9UNQ0); assay: vanadate-sensitive ATPase stimulation in insect cell membranes expressing ABCG2; type: biochemical
T1 sequence (Q9UNQ0 1-655): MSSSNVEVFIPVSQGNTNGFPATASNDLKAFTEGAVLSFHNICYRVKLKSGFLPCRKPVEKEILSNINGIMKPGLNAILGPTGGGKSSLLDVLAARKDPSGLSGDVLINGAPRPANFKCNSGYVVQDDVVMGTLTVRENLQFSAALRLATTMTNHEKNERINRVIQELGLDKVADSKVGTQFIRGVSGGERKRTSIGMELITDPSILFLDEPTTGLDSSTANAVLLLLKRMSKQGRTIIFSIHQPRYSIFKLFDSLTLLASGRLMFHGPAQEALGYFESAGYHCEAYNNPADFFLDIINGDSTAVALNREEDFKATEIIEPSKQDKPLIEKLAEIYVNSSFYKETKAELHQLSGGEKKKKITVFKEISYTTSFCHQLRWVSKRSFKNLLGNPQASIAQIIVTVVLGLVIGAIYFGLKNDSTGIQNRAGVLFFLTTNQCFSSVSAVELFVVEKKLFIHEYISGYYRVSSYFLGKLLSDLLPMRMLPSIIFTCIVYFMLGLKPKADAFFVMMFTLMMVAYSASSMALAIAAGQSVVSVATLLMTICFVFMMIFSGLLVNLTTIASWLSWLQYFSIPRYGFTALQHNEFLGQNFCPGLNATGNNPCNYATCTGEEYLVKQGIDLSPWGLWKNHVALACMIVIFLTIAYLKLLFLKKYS

[2] = biological target: ABCB1 (Homo sapiens, UniProt P08183); assay: vanadate-sensitive ATPase stimulation in insect cell membranes expressing ABCB1; type: biochemical
ABCB1, sequence (P08183 whole entry): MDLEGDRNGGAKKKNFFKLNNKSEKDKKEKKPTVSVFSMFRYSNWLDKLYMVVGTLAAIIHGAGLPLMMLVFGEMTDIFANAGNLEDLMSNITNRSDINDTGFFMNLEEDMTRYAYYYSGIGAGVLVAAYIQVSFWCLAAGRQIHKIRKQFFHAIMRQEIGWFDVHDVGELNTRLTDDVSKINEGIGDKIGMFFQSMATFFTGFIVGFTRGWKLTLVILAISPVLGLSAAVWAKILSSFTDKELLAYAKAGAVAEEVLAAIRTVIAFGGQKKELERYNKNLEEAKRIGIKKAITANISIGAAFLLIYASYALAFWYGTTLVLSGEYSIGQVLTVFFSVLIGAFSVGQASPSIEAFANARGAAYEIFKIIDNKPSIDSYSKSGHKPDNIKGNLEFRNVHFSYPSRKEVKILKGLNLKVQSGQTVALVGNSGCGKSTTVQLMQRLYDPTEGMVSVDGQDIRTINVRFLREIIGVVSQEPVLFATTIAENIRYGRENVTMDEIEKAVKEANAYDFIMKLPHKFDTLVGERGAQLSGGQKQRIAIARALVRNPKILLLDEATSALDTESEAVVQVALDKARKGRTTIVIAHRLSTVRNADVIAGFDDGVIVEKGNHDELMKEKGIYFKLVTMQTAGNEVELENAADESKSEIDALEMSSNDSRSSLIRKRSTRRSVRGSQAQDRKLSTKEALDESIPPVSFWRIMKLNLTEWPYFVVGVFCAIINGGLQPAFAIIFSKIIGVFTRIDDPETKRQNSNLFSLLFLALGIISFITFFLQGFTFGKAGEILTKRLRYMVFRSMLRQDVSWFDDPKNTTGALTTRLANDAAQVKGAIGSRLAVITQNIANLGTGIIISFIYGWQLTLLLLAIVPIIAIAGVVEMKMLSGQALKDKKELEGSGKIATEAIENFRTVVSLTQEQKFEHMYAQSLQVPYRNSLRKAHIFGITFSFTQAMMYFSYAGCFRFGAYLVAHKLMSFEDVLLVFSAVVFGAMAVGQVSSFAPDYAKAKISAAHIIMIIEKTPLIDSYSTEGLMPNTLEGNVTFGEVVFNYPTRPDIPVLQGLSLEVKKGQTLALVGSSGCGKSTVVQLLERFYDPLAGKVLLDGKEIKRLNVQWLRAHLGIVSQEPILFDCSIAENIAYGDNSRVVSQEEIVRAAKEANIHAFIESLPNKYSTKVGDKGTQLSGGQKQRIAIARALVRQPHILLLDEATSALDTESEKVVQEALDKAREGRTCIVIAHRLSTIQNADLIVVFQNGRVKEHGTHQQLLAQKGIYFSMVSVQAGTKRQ

Compound: Cn1cc(-c2cc3c(N4CCN(c5ncc([C@@](C)(N)c6ccc(F)cc6)cn5)CC4)ncnn3c2)cn1 [avapritinib]
- EC50 [1]: ~200 nM
- EC50 [2]: ~5000 nM
